Where two headings read alike, the source gives them in different places.
Key:
[1] = test system: carrageenin-induced edema; experiment: Carrageenin-induced edema suppression in rats (anti-inflammatory activity); format: in vivo, rat (male, Wistar strain); conditions: for ED50: read-out: Anti-inflammatory activity, ED50
Protocol: Anti-inflammatory activity was tested as follows: Male rats of the Wistar strain were used in groups of 7. A test compound was suspended in a 0.2% carboxymethyl cellulose solution and orally administered in a dose of 0.5 ml/100 g of body weight. […] Three hours after injection of carrageenin, each rat was sacrificed by ether. The feet of both hind legs were amputated at the ankle joint and weighed to detect the difference in weight between both feet. Then, the ability of the test compound to suppress the carrageenin-induced edema was evaluated by comparing the foot weight difference of the test group with that of a control group (consisting of rats to which the solvent alone was administered). Specifically, the rate of suppression of the edema was calculated according to the following equation: [formula]

in vivo [2] = conditions: rat, in vivo, po
Protocol: (§1) The incidence of gastric disorders in rats was tested as follows: Eight-weeks-old male rats of the Wistar strain were used in groups of 5 to 7. After they were fasted for 18 hours or more, a test compound was administered orally. Six hours later, each rat was sacrificed by decapitation. The stomach was removed, filled with 10 ml of physiological saline, and then fixed in 5% formalin. After about 10 minutes, the stomach was incised through the greater curvature and the presence or absence of gastric disorders (in particular, erosion) was examined by visual observation. According to Litchfield-Wilcoxon's method, the dose causing erosion to occur in 50% of the test animals, UD50, was calculated on an all-or-none basis.

[3] = test system: carrageenin-induced edema; experiment: Duration of anti-inflammatory activity (carrageenin edema, varied premedication time); format: in vivo, rat (male, Wistar strain); conditions: for Rate of suppression of edema: dose = ED50
Excerpt: The premedication time was defined as the time interval between the administration of a test compound and the injection of carrageenin.

in vivo [4] = conditions: mouse, in vivo, po
Protocol: (§2) A test compound was suspended in a 0.2% carboxymethyl cellulose solution and orally administered in a dose of 0.1 ml/10 g of body weight. […] The LD50 value was calculated on the basis of the death rates on the final day.

mice = experiment: in vivo; conditions: for Number of deaths/total number of test animals: p.o.
Protocol: as §2

[5] = Table 1; literature value: Pharmacometrics, 6(6), 1285 (1972) for indomethacin; Folia Pharmacologica Japonica, 69, 319 (1973) for diclofenac; cited from earlier work
[6] = test system: stomach (gastric disorders, erosion); experiment: Incidence of gastric disorders (erosion) in rats; conditions: Table 1; ratio of UD50 (gastric) to ED50 (edema)
Protocol: as §1

[7] = cited from earlier work
[8] = Rattus norvegicus, po, 3 h, p.o., read-out: Rate of suppression of edema
[9] = 3 h, Table 1, rat, oral, carrageenin edema
[10] = Rattus norvegicus, po, 3 h, read-out: Rate of suppression of edema
[11] = Rattus norvegicus, po, 3 h, 1.25 mg/kg, p.o., read-out: Rate of suppression of edema
[12] = Rattus norvegicus, po, 3 h, 2.5 mg/kg, p.o., read-out: Rate of suppression of edema
[13] = Rattus norvegicus, po, 3 h, 5.0 mg/kg, p.o., read-out: Rate of suppression of edema

| Compound | TD50 at 6 h (in vivo [2]) [mg/kg] | ED50 [1, 9] [mg/kg] | Rate of suppression of edema ([3]; premedicated 1 hr.) [%] | Rate of suppression of edema ([3]; premedicated 3 hr.) [%] | Rate of suppression of edema ([3]; premedicated 6 hr.) [%] | Rate of suppression of edema ([3]; premedicated 12 hr.) [%] | Rate of suppression of edema ([3]; premedicated 24 hr.) [%] | Rate of suppression of edema ([3]; premedicated 48 hr.) [%] | LD50 at 168 h (in vivo [4]) [mg/kg] | Anti-inflammatory activity (in words) ([7]; prior art) | other results |
| --- | --- | --- | --- | --- | --- | --- | --- | --- | --- | --- | --- |
| CN1C(C(=O)Nc2ccc(Cl)cn2)C(=O)c2ccccc2S1(=O)=O (stereo not shown) [5-Chloro-2-pyridyl compound, N-(5-chloro-2-pyridyl)-3,4-dihydro-2-methyl-4-oxo-2H-1,2-benzothiazine-3-carboxamide 1,1-dioxide] |  |  |  |  |  |  |  |  |  |  | inhibition in vivo at 6.5 mg/kg [1, 8]: 18.9% |
| Cc1cccc(NC(=O)C2C(=O)c3ccccc3S(=O)(=O)N2C)n1 (stereo not shown) [6-Methyl-2-pyridyl compound, N-(6-methyl-2-pyridyl)-3,4-dihydro-2-methyl-4-oxo-2H-1,2-benzothiazine-3-carboxamide 1,1-dioxide] | 5.1 | 4.5 |  |  |  |  |  |  |  |  | inhibition in vivo at 1.75 mg/kg ([1]; Rattus norvegicus, po, 3 h, 1.75 mg/kg, p.o., read-out: Rate of suppression of edema): 27.4%; inhibition in vivo at 6.5 mg/kg [1, 8]: 58.9% |
| CN1C(C(=O)Nc2cccc(F)n2)C(=O)c2ccccc2S1(=O)=O (stereo not shown) [Compound of formula (1), N-(6-fluoro-2-pyridyl)-3,4-dihydro-2-methyl-4-oxo-2H-1,2-benzothiazine-3-carboxamide 1,1-dioxide] | 297 | 7.5 | 56.6 | 54.8 | 43.2 | 39.1 | 20.7 | 3.4 | > 5000 |  | inhibition in vivo at 2 mg/kg ([1]; Rattus norvegicus, po, 3 h, 2.0 mg/kg, p.o., read-out: Rate of suppression of edema): 20%; inhibition in vivo at 4 mg/kg ([1]; Rattus norvegicus, po, 3 h, 4.0 mg/kg, p.o., read-out: Rate of suppression of edema): 32%; inhibition in vivo at 8 mg/kg ([1]; Rattus norvegicus, po, 3 h, 8.0 mg/kg, p.o., read-out: Rate of suppression of edema): 54.6%; inhibition in vivo at 16 mg/kg ([1]; Rattus norvegicus, po, 3 h, 16.0 mg/kg, p.o., read-out: Rate of suppression of edema): 66.6%; Anti-inflammatory activity (in words) ([1]; summary of results): potent and long-lasting anti-inflammatory activity; Duration of anti-inflammatory activity (in words) ([3]; from Table 3): excellent in the duration of anti-inflammatory activity; Number of deaths/total number of test animals (mice; 3,000 mg/kg): 0/5; Number of deaths/total number of test animals (mice; 4,000 mg/kg): 0/5; Number of deaths/total number of test animals (mice; 5,000 mg/kg): 0/5; Acute toxicity, LD50 (mice; Table 1, mouse, oral, 7 days): > 5,000 mg/kg; Degree of safety (in words) (mice; mouse, in vivo): very high degree of safety |
| O=C(O)Cc1ccccc1Nc1c(Cl)cccc1Cl [Diclofenac, diclofenac] | 9.2 |  | 45.9 | 24.7 | 17.6 |  | -1.2 |  |  |  | ED50 ([1]; Rattus norvegicus, po, 3 h): 5 mg/kg; inhibition in vivo at 2.5 mg/kg [1, 10]: 29.7%; inhibition in vivo at 5 mg/kg [1, 10]: 48.5%; inhibition in vivo at 10 mg/kg [1, 10]: 69.3% |
| COc1ccc2c(c1)c(CC(=O)O)c(C)n2C(=O)c1ccc(Cl)cc1 [Indomethacin, indomethacin] | 5.4 |  | 49.4 | 57.6 | 29.4 | 18.8 | -3.5 |  |  |  | Acute toxicity, LD50 [5]: 17 mg/kg; Therapeutic index, UD50/ED50 [6]: 1.2; ED50 ([1]; Rattus norvegicus, po, 3 h): 4.6 mg/kg; inhibition in vivo at 1.25 mg/kg [1, 10]: 19.3%; inhibition in vivo at 2.5 mg/kg [1, 10]: 22.8%; inhibition in vivo at 5 mg/kg [1, 10]: 57.4%; inhibition in vivo at 10 mg/kg [1, 10]: 73.3%; selectivity ratio (in vivo [4]): 3.7 |
| Cc1cc(NC(=O)C2C(=O)c3ccccc3S(=O)(=O)N2C)no1 (stereo not shown) [Isoxicam, 3,4-dihydro-2-methyl-N-(5-methyl-3-isoxazolyl)-4-oxo-2H-1,2-benzothiazine-3-carboxamide 1,1-dioxide] | 250 | 15.5 | 54.2 | 54.2 | 45.8 | 36.3 | 19.5 | 1.1 | 5000 | lower than that of Piroxicam and Sudoxicam | inhibition in vivo at 3.75 mg/kg ([1]; Rattus norvegicus, po, 3 h, 3.75 mg/kg, p.o., read-out: Rate of suppression of edema): 7.5%; inhibition in vivo at 7.5 mg/kg ([1]; Rattus norvegicus, po, 3 h, 7.5 mg/kg, p.o., read-out: Rate of suppression of edema): 32.3%; inhibition in vivo at 15 mg/kg ([1]; Rattus norvegicus, po, 3 h, 15.0 mg/kg, p.o., read-out: Rate of suppression of edema): 46.8%; inhibition in vivo at 30 mg/kg ([1]; Rattus norvegicus, po, 3 h, 30.0 mg/kg, p.o., read-out: Rate of suppression of edema): 69.4%; Degree of toxicity and incidence of gastric disorders (in words) ([7]; in vivo): relatively low |
| CN1C(C(=O)Nc2ccccn2)C(=O)c2ccccc2S1(=O)=O (stereo not shown) [Piroxicam, 3,4-dihydro-2-methyl-4-oxo-N-(2-pyridyl)-2H-1,2-benzothiazine-3-carboxamide 1,1-dioxide] | 8.2 | 1.75 | 57.6 | 55.3 | 40.0 | 38.8 | 15.3 | 1.7 | 490 | potent and long-lasting anti-inflammatory activity | inhibition in vivo at 0.625 mg/kg ([1]; Rattus norvegicus, po, 3 h, 0.625 mg/kg, p.o., read-out: Rate of suppression of edema): 26.9%; inhibition in vivo at 1.25 mg/kg [1, 11]: 42.5%; inhibition in vivo at 2.5 mg/kg [1, 12]: 57%; inhibition in vivo at 5 mg/kg [1, 13]: 76.4%; Degree of toxicity and incidence of gastric disorders (in words) ([7]; in vivo): not appreciably different from those of indomethacin and diclofenac |
| CN1C(C(=O)Nc2nccs2)C(=O)c2ccccc2S1(=O)=O (stereo not shown) [Sudoxicam, 3,4-dihydro-2-methyl-4-oxo-N-(2-thiazolyl)-2H-1,2-benzothiazine-3-carboxamide 1,1-dioxide] | 11.8 | 5.1 | 49.8 | 52.1 | 39.5 | 31.6 | 10.4 | -2.4 | 500 | potent and long-lasting anti-inflammatory activity | Therapeutic index, UD50/ED50 [6]: 2.3; inhibition in vivo at 1.25 mg/kg [1, 11]: 14.9%; inhibition in vivo at 2.5 mg/kg [1, 12]: 30.7%; inhibition in vivo at 5 mg/kg [1, 13]: 45.5%; inhibition in vivo at 10 mg/kg ([1]; Rattus norvegicus, po, 3 h, 10.0 mg/kg, p.o., read-out: Rate of suppression of edema): 69.3%; Degree of toxicity and incidence of gastric disorders (in words) ([7]; prior art): not appreciably different from those of indomethacin and diclofenac; selectivity ratio (in vivo [4]): 98; Number of deaths/total number of test animals (mice; 200 mg/kg): 0/5; Number of deaths/total number of test animals (mice; 400 mg/kg): 2/5; Number of deaths/total number of test animals (mice; 800 mg/kg): 4/5; Number of deaths/total number of test animals (mice; 1,000 mg/kg): 5/5; Therapeutic index and safety margin (in words) (mice; from Table 1): superior in therapeutic index and safety margin to indomethacin and diclofenac |

From patent US4376119A, “Benzothiazine derivative” (priority 1981, dated 1983)
